Measured values taken from patent US8633319B2, “7-(1H-pyrazol-4-yl)-1,6-naphthyridine compounds as Syk inhibitors” (Glaxo Group Limited, priority 2010, dated 2014).
Read-outs that look alike come from different tables or passages of the source.

Tests used:
[1] = tested on: Ramos B cells; test: Ramos pErk Assay; type: cell-based; settings: Homo sapiens, as the hydrochloride salts, anti-IgM stimulated
Procedure: Ramos B cells (human B cells of Burkitt's Lymphoma) are stimulated using anti-IgM. […] The subsequent autophosphorylation of Syk leads to initiation of a signalling cascade resulting in B cell activation via the Erk MAP Kinase pathway. As a result Erk is phosphorylated and following cell lysis is detected by an immune capture assay.
Cells were plated at a density of 2.5×10^5/well in a volume of 25 μl assay medium (RPMI containing 10% heat inactivated foetal calf serum, 1% L-glutamine) in 96 v-well polypropylene plates. 25 μl appropriately diluted compound solution was added and the plate incubated for 30 min at 37° C. with 5% CO2. Cells were stimulated with 5 μl Fab′2 fragments of goat anti-human IgM (5 μg/ml final) for 7 min at 37° C. Cells are lysed by the addition of 55 μL 2×RIPA lysis buffer for 2 h at 4° C. Lysate may be frozen at this point at −80° C.
50 μl cell lysate was transferred to a 96 well MSD plate coated with anti-pErk1/2 (Thr/Tyr:202/204; 185/187) capture antibody and incubated for 16 hours at 4° C. or 3 hours at room temperature. The plate was washed and an anti-pErk detection antibody added (25 μl/well) for 1 hour at room temperature. This was removed, 150 μL MSD read buffer added and the resultant electrochemiluminescence signal measured.
Compound was prepared as a 10 mM stock in DMSO and a dilution series prepared in DMSO using 9 successive 5-fold dilutions. This dilution series was diluted a further 1:100 with assay medium to give the final concentration range to be tested of 5×10^−5 to 2.56×10^−11M. Compound dilutions were prepared using the Biomek 2000 and Biomek Nx automated robotic pipetting systems.

[2] = molecular target: T1, hERG (Homo sapiens, UniProt Q12809); test: Cy3B Dofetilide Fluoro-Ligand Binding Assay for hERG; settings: membranes of CHO-K1 cells that express hERG, pH 7.4, probe Cy3b-Dofetilide fluoro-ligand, 1.0 nM, hERG-expressing CHO-K1 membranes
T1 construct: expressed in transfected cells; host or cells: CHO-K1 cells stably expressing human hERG; membrane fraction
T1 sequence (Q12809 whole entry): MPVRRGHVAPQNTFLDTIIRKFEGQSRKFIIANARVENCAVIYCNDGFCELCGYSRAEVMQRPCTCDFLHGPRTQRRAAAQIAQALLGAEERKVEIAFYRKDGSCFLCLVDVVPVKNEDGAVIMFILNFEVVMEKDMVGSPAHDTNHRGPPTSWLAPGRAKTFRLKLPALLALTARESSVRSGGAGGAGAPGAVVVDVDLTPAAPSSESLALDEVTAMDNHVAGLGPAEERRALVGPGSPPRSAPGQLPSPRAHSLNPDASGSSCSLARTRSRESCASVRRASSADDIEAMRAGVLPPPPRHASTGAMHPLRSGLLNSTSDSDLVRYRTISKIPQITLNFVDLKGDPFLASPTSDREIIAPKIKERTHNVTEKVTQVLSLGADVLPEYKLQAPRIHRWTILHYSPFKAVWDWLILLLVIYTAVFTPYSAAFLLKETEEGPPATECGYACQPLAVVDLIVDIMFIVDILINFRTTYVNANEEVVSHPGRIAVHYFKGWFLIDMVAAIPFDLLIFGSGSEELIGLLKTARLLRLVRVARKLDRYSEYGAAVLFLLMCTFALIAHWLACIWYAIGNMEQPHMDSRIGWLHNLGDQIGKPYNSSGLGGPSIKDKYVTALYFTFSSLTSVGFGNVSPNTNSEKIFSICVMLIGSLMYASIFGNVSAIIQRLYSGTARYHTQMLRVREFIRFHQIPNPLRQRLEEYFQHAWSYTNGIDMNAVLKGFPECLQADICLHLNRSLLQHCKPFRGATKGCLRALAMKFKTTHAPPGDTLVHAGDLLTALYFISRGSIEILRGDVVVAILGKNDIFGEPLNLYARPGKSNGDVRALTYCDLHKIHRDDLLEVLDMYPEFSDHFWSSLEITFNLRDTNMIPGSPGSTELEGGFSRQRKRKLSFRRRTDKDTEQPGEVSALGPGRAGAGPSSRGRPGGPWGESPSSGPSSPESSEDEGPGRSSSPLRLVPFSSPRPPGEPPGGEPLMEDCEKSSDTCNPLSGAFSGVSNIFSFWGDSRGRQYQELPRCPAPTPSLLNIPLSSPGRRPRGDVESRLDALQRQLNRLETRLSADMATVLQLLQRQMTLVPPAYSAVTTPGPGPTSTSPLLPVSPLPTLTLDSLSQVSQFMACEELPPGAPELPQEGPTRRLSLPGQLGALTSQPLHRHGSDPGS
Procedure: Compound potencies were determined by a fluoro-ligand^§ (Cy3b-Dofetilide) fluorescence polarisation assay.
hERG-expressing CHO-K1 membranes* (60 μg/ml) were incubated with 1.0 nM fluoro-ligand^§, in assay buffer (25 mM HEPES, 1.2 mM MgCl2, 100 mM KCl and 0.1% pluronic, pH adjusted to 7.4 using 5M KOH). The final potassium concentration in the assay was 100 mM. After 70 min mixing at room temperature, in the dark, 10 μl was dispensed into each well of a black LV Greiner 384-well plate containing 0.1 μl of test compound in DMSO. The plates were left to equilibrate for 2 h before reading on an Acquest™/Analyst™ imager. pIC50 data were generated using from an 11-point inhibition curve (top assay concentration of 50 μM and a 1:3 step-dilution), a […] curve-fit being applied using ABase and XC50 to analyse data and generate curve fits.
Chinese Hamster Ovary (CHO) cells stably expressing the human hERG receptor were grown to 80% confluency before being harvested by trypsinisation and subsequent centrifugation at 500 g for 10 min. Cell pellets were frozen at −80 C before membrane production. The frozen pellet was thawed on ice, re-suspended and homogenised in 10 volumes of membrane buffer (50 mM HEPES, pH 7.4, 1 mM EDTA, 1 mM PMSF, 2×10^-6M Pepstatin A). The membrane suspension was centrifuged for 20 min at 500 g, the pellet discarded and the supernatent spun again at 48,000 g for 30 min. Following the second centrifugation the remaining pellet containing the membrane fraction was re-suspended in an appropriate volume (4 ml for each ml of frozen cell pellet) and assayed for protein concentration.

[3] = as the free base, read-out: average IC50
[4] = form not stated (first list), read-out: average pIC50 (converted)
[5] = hydrochloric acid salts, read-out: average IC50
[6] = hydrochloric acid salts, read-out: average pIC50 (converted)

SMILES	IC50 [1]	IC50 at 2 h [2, 3]	IC50 at 2 h [2, 4]	IC50 at 2 h [2, 5]	IC50 at 2 h [2, 6]
CCn1cc(-c2cc3ncccc3c(OC[C@]3(F)CCCNC3)n2)cn1 [Example 4, 7-(1-Ethyl-1H-pyrazol-4-yl)-5-({[(3S)-3-fluoro-3-piperidinyl]methyl}oxy)-1,6-naphthyridine]	< 1 µM	> 10 µM	> 10 µM	> 20 µM	> 10 µM
CC(C)(C)n1cc(-c2cc3ncccc3c(NC[C@]3(F)CCCNC3)n2)cn1 [Example 2, 7-[1-(1,1-Dimethylethyl)-1H-pyrazol-4-yl]-N-{[(3S)-3-fluoro-3-piperidinyl]methyl}-1,6-naphthyridin-5-amine]	< 1 µM	> 10 µM	> 10 µM	> 20 µM	> 10 µM
COCn1cc(-c2cc3ncccc3c(NC[C@]3(F)CCCNC3)n2)cn1 [Example 3, N-{[(3S)-3-Fluoro-3-piperidinyl]methyl}-7-{1-[(methyloxy)methyl]-1H-pyrazol-4-yl}-1,6-naphthyridin-5-amine]	< 1 µM	> 10 µM	> 10 µM	> 20 µM	> 10 µM
CCn1cc(-c2cc3ncccc3c(NC[C@]3(F)CCCNC3)n2)cn1 [Example 1, 7-(1-Ethyl-1H-pyrazol-4-yl)-N-{[(3S)-3-fluoro-3-piperidinyl]methyl}-1,6-naphthyridin-5-amine]	< 1 µM	> 10 µM	> 10 µM	> 20 µM	> 10 µM
